# Source: US12076307B2, “Compositions for prevention or treatment of acute radiation syndrome and other radiation exposure” (priority 2017, dated 2024)
# Columns and labels:
# [1] = system: BALB/c mice, 6.11 Gy γ-radiation TBI; assay: LD70/30 (6.11 Gy) ARS model: survival, life span, body weight, EC-18 10/50/250 mg/kg; format: in vivo, mouse; conditions: for improvement of survival vs control group / ≥10% Body Weight Loss, % / ≥20% Body Weight Loss, % / Average life span / Median survival / No. of mice that survived/total / Survivability / Survival: 6.11 Gy; for No. of mice that survived/total / Survivability / Survival: 30 days
# Experimental: For the experiments to determine survival rate following LD70/30 dose 6.11 Gy of γ-irradiation (TBI, ^60Co, 0.833Gy min-1), mice were grouped 20 (10 males and 10 females) per treatment cohorts; γ-radiation only cohort (positive control), γ-radiation with EC-18 10 mg/kg cohort, γ-radiation with EC-18 50 mg/kg cohort, and γ-radiation with EC-18 250 mg/kg cohort. EC-18 (Enzychem Lifesciences, Jaecheon, Republic of Korea) was suspended in PBS and orally administrated once a day, starting 1 day after irradiation. The positive control group was administrated PBS. The survival and body weight of the animals were recorded daily for 30 days.
# All data are presented as the mean t standard deviation (SD). A paired Log rank (Mantel-Cox) test of survival curve was applied to estimate the significance on survival rate and to compare the duration of neutropenia between control and EC-18-treated cohorts. Average life span was calculated as the sum of the life span for all mice/total number of mice. For comparison of the statistical differences of more than two groups, one-way ANOVA test was used. All other statistical analyses were performed using a Student's paired t test and p values<0.05 were considered statistically significant.
# The purpose of this study was to investigate the dose-effect of EC-18 on increasing the survival in mice after exposure to γ-radiation to the entire body. Eleven-week-old male and female BALB/c mice (10 females and 10 males; 20 animals per study group) were tested for the LD70/30 study. This study is consisted of 4 experimental groups; γ-radiation only group, and γ-radiation with EC-18 treatment groups at 10, 50, or 250 mg/kg.
# Balb/c mice, TBI 6.5 Gy = assay: Survival in extreme LD100 TBI murine model (6.5 Gy); format: in vivo, mouse; conditions: for Survival: 250 mg/kg/day 16 days
# Experimental: Animals were treated orally with phosphate-buffered saline or EC-18 at 250 mg/kg/day for 16 days.
# gemcitabine-treated mice = assay: Gemcitabine-induced neutropenia, PLAG with pegfilgrastim; format: in vivo, mouse
# Experimental: In this work, neutrophil counts were compared in four groups of mice: control mice, gemcitabine-treated mice, gemcitabine/pegfilgrastim-treated mice, and gemcitabine/pegfilgrastim/PLAG-treated mice. Gemcitabine was administered intraperitoneally to induce neutropenia. On Day 0, pegfilgrastim was administered subcutaneously. PLAG (50 mg/kg) was orally administered every day during the treatment course. Blood was taken from the orbital sinuses on Days 0, 3, and 5, and neutrophils were counted. […] Pegfilgrastin is polyethylene glycol (PEG)-conjugated granulocyte colony-stimulating factor (PEGylated-G-CSF, pegfilgrastim).
# [2] = Safety assessment in clinical trials; format: in vivo, human
# Experimental: AEs that were observed involved mild symptoms unrelated to EC-18 administration. […] In the clinical studies with pancreatic cancer patients, there were no SAEs associated with EC-18 administered twice daily (BID) for a total of 1000 mg/day.
# [3] = Plasma protein binding by rapid equilibrium dialysis, human
# Experimental: The plasma protein binding ability of EC-18 was tested by rapid equilibrium dialysis (RED). The chamber separated by a dialysis tubing membrane (cut-off: 8 kDa) was filled on one side with rat or human plasma mixed with phosphate buffer and on the other side with rat or human plasma mixed with the test or standard reference material (test concentration: 1 μM).
# [4] = In vitro metabolite screening, monkey liver microsomes; format: in vitro ADME; conditions: NHP, N=2
# Experimental: [^14C]EC-18 or the positive control (7-ethoxycoumarin; 7-EC) reacted with microsomes prepared from hepatocytes of rats, dogs, monkeys, and humans, with or without cofactors, for 60 and 120 min. Then, the residual EC-18 concentration over time was measured by LC-RID ([^14C]EC-18) or LC-MS/MS (7-EC) (FIG. 63 and FIG. 64).
# The LC-RID chromatographic profiles of radioactive metabolites produced in the 2-hr incubation reaction mixtures of the same test systems A, B, and C used to assess the metabolic and non-metabolic elimination rates of EC-18 were compared to the LC-UV chromatographic profiles of the synthetic reference material. […] The relative radioactivity of EC-18 accounted for 42-67% of total radioactivity. The peaks designated as M2, M3, and M5 were also determined in all species, and their relative radioactivity accounted for 12-34% of total radioactivity. The peaks of M4 and M6 were determined in monkeys and humans. M1 was abundantly detected in all species, but it was assumed to be a peak of early elution. The LC-UV chromatograms of reaction mixtures in each test system (FIGS. 65A-65C) and the relative radioactivity of the screened metabolites are shown in Table 25.
# CYP1A2 = biological target: T1, CYP1A2 (Homo sapiens, UniProt P05177); assay: in vitro; format: in vitro ADME; conditions: human, microsomes
# T1 construct: incubated with human liver microsomes; from tissue; host or cells: human liver microsomes
# [5] = EC-18 10 mg/kg oral daily from day 1, 10 mg/kg
# [6] = EC-18 50 mg/kg oral daily from day 1, 50 mg/kg
# [7] = EC-18 250 mg/kg oral daily from day 1, 250 mg/kg
# T1 sequence (P05177 whole entry): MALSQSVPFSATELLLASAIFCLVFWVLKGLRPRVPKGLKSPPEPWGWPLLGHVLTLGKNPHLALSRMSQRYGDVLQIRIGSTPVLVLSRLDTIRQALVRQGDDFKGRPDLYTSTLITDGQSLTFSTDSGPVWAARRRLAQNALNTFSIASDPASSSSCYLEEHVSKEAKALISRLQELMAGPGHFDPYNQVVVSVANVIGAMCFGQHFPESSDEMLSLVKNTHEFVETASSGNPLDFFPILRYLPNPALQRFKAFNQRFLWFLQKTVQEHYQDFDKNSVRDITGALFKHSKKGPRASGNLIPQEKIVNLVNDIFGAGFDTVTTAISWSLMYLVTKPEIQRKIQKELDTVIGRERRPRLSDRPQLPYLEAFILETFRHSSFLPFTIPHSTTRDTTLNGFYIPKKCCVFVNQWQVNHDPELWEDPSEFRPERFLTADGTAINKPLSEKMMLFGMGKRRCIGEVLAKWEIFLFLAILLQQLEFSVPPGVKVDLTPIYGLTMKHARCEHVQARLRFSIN
structure (smiles),measurement,setting,value
"CCCCC/C=C\C/C=C\CCCCCCCC(=O)OC(COC(C)=O)COC(=O)CCCCCCCCCCCCCCC (stereo not drawn) [EC-18, 1-palmitoyl-2-linoleoyl-3-acetylglycerol]",radiation-induced weight loss vs positive control cohort,"[1]; 250 mg/kg, from the 18th day after irradiation to the end",significantly reduced
same,improvement of survival vs control group,[1]; 50 mg/kg daily,2 fold
same,improvement of survival vs control group,[1]; 250 mg/kg daily,4 fold
same,"≥10% Body Weight Loss, %",[1]; EC-18 10 mg/kg,85%
same,"≥20% Body Weight Loss, %",[1]; EC-18 10 mg/kg,70%
same,Average life span,[1]; [5],22.3 days
same,Median survival,[1]; [5],17 days
same,No. of mice that survived/total,[1]; [5],4/20
same,Survivability / Survival,[1]; [5],40%
same,"≥10% Body Weight Loss, %",[1]; EC-18 50 mg/kg,55%
same,"≥20% Body Weight Loss, %",[1]; EC-18 50 mg/kg,35%
same,Average life span,[1]; [6],19.3 days
same,Median survival,[1]; [6],20 days
same,No. of mice that survived/total,[1]; [6],8/20
same,Survivability / Survival,[1]; [6],20%
same,"≥10% Body Weight Loss, %",[1]; EC-18 250 mg/kg,15%
same,"≥20% Body Weight Loss, %",[1]; EC-18 250 mg/kg,15%
same,Average life span,[1]; [7],17.9 days
same,Median survival,[1]; [7],30 days
same,No. of mice that survived/total,[1]; [7],16/20
same,severe weight loss,[1]; two higher doses (50 and 250 mg/kg),significantly prevented severe weight loss
same,signs of subcutaneous hemorrhage,"Balb/c mice, TBI 6.5 Gy; 250 mg/kg/day",markedly improved
same,Survival,"Balb/c mice, TBI 6.5 Gy; started 24-hr post-irradiation",65%
same,Survival,"Balb/c mice, TBI 6.5 Gy; started 48-hr post-irradiation",25%
same,blood cell apoptosis and neutrophil release from bone marrow,gemcitabine-treated mice; PLAG 50 mg/kg,did not affect
same,pegfilgrastim-induced CXCR2 expression in neutrophils,gemcitabine-treated mice; PLAG 50 mg/kg,markedly decreased
same,neutrophil counts,"gemcitabine-treated mice; gemcitabine/pegfilgrastim/PLAG 50 mg/kg oral daily, third day following pegfilgrastim",dramatically increased
same,adverse events,[2]; five clinical trials,no adverse events (AEs) that could be considered serious or severe
same,SAEs associated with EC-18,"[2]; pancreatic cancer patients, BID, total 1000 mg/day",no SAEs
same,accumulation,[2]; single- and multiple-dose 500 to 4000 mg,no accumulation with repeated-dosing was observed
same,Plasma Protein Binding Rate,"[3]; Humans, 1 μM, 4 hrs RED, n=3",>99%
same,"fraction unbound at 4 hrs, 1 μM","[3]; human, plasma",< 0.01
same,Mean Peak Area in LC-RID,"[4]; A (NADPH added), [14C]EC-18 2 hrs",46.8%
same,Mean Peak Area in LC-RID,"[4]; B (NADPH, PAPS, UDPGA added), 2 hrs",46.0%
same,Mean Peak Area in LC-RID,"[4]; C (no cofactor added), 2 hrs",41.8%
same,IC50,CYP1A2,24.4 mM
